The record followed here is US20100286145A1, “ISOPHTHALAMIDE DERIVATIVES INHIBITING BETA-SECRETASE ACTIVITY” (CoMentis, Inc., priority 2007, published 2010).

In the assay the target is memapsin 2 (Homo sapiens, UniProt P56817). As to the kind of experiment: Inhibition of memapsin 2 beta-secretase activity (fluorogenic substrate FS-2). The class given is biochemical. The note with it: memapsin 2, pH 4, 37° C., 20 minutes pre-incubation; read-out: M2Ki. The method, then: Potency of compounds were determined by measurement of their inhibition of memapsin 2 activity toward a fluorescent substrate. Kinetic inhibition experiments were performed using the procedure as described in Ermolieff, et al. (Biochemistry 39:12450-12456 (2000), the teachings of which are incorporated hereby in their entirety). Briefly, assays were performed at pH 4, 37° C., by pre-incubation of memapsin 2 enzyme with compound for 20 minutes. Activity measurements were initiated by addition of a fluorogenic substrate FS-2 (Bachem Americas, Torrance, Calif.) MCA-SEVNLDAEFR-DNP (SEQ ID NO.: 2). The substrate was derived from 10 amino acids of the human amyloid precursor protein (APP), with the Swedish variant amino acids at the beta-secretase cleavage site. The terminal amino acid was modified from arginine to lysine to facilitate derivatization with a functional group for detection by autofluorescence. The amino acid sequence of the “core” peptide of the substrate is SEVNLDAEFK (SEQ ID NO.: 3). The amino terminus was derivatized with (7-methoxycoumarin-4-yl)acetyl (MCA), and the epsilon amine of the lysine side chain of the terminal residue (K in sequence SEVNLDAEFK (SEQ ID NO.: 3)) was derivatized with 2,4-dinitorphenyl (DNP).
Fluorescent signal increase over time was measured as a rate of hydrolysis of the peptide substrate. Inhibition of hydrolytic rate was expressed relative to uninhibited controls and fit to a model for tight-binding inhibitors (J. Bieth, in “Proteinase Inhibitors,” Bayer Symposium V, 463-469, 1974, which is herein incorporated by reference for all purposes in its entirety).

Sequence of memapsin 2 (P56817 46-501): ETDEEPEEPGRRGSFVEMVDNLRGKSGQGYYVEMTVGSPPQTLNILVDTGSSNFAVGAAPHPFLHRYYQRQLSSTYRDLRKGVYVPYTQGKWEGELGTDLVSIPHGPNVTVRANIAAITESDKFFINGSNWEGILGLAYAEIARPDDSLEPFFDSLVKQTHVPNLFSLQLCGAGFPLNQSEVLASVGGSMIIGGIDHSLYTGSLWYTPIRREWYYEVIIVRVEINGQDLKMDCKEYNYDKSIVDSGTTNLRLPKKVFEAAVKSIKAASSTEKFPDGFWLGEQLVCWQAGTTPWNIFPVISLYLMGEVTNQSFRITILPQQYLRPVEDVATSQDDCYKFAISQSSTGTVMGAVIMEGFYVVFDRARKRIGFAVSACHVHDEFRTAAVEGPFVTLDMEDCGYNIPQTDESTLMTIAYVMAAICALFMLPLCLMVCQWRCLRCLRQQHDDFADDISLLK

In the case of `CSCc1ccc(CNC[C@@H](O)[C@H](Cc2ccccc2)NC(=O)c2cccc(C(=O)N(C)Cc3nc(C)cs3)c2)nc1C` [Compound 87, N1-((2S,3R)-3-hydroxy-4-((6-methyl-5-(methylthiomethyl)pyridin-2-yl)methylamino)-1-phenylbutan-2-yl)-N3-methyl-N3-((4-methylthiazol-2-yl)methyl)isophthalamide], the Ki was more than 0.501 µM.

Regarding `Cc1csc(CNC(=O)c2cccc(C(=O)N[C@@H](Cc3ccccc3)[C@H](O)CNCc3ccc(CS(C)(=O)=O)c(C)n3)c2)n1` [Compound 101, N1-((2S,3R)-3-hydroxy-4-((6-methyl-5-(methylsulfonylmethyl)pyridin-2-yl)methylamino)-1-phenylbutan-2-yl)-N3-((4-methylthiazol-2-yl)methyl)isophthalamide], the Ki was more than 0.501 µM.

Regarding `COc1cccc(CNC[C@@H](O)[C@H](Cc2ccccc2)NC(=O)c2cc(C(=O)NCc3nccc(C)n3)cc(N(C)S(C)(=O)=O)c2)c1` [Compound 105, N1-((2S,3R)-3-hydroxy-4-(3-methoxybenzylamino)-1-phenylbutan-2-yl)-5-(N-methylmethylsulfonamido)-N3-((4-methylpyrimidin-2-yl)methyl)isophthalamide], the Ki was more than 0.501 µM.

`COc1cccc(CNC[C@@H](O)[C@H](Cc2ccccc2)NC(=O)c2cccc(C(=O)N(C)Cc3cccc(C)n3)c2)c1` [Compound 108, N1-((2S,3R)-3-hydroxy-4-(3-methoxybenzylamino)-1-phenylbutan-2-yl)-N3-methyl-N3-((6-methylpyridin-2-yl)methyl)isophthalamide]: the Ki was 0.301 to 0.5 µM.

Consider `C[C@@H](NC(=O)c1cc(C(=O)N[C@@H](Cc2ccccc2)[C@H](O)CNCc2cc(C(C)(C)C)ccc2O[Si](C)(C)C(C)(C)C)cc(N(C)S(C)(=O)=O)c1)c1ccccc1` [Compound 109, N1-((2S,3R)-4-(5-tert-butyl-2-(tert-butyldimethylsilyloxy)benzylamino)-3-hydroxy-1-phenylbutan-2-yl)-5-(N-methylmethylsulfonamido)-N3-((R)-1-phenylethyl)isophthalamide], for which the Ki is less than 0.3 µM.

As for `Cc1c(CNC[C@@H](O)[C@H](Cc2ccccc2)NC(=O)c2cc(C(=O)N[C@H](C)c3ccccc3)cc(N(C)S(C)(=O)=O)c2)cnn1C(C)(C)C` [Compound 120, N1-((2S,3R)-4-((1-tert-butyl-5-methyl-1H-pyrazol-4-yl)methylamino)-3-hydroxy-1-phenylbutan-2-yl)-5-(N-methylmethylsulfonamido)-N3-((R)-1-phenylethyl)isophthalamide], the Ki was 0.301 to 0.5 µM.

For the compound `COc1cccc(CNC[C@@H](O)[C@H](Cc2ccccc2)NC(=O)c2cc(NO)cc(C(=O)N[C@H](C)c3ccccc3)c2)c1` [Compound 123, N1-((2S,3R)-3-hydroxy-4-(3-methoxybenzylamino)-1-phenylbutan-2-yl)-5-(hydroxyamino)-N3-((R)-1-phenylethyl)isophthalamide], the Ki was more than 0.501 µM.

As for `COc1cccc(CNC[C@@H](O)[C@H](Cc2ccccc2)NC(=O)c2cc(C(=O)NCc3cccc(C)n3)cc(N(C)S(C)(=O)=O)c2)c1` [Compound 127, N1-((2S,3R)-3-hydroxy-4-(3-methoxybenzylamino)-1-phenylbutan-2-yl)-5-(N-methylmethylsulfonamido)-N3-((6-methylpyridin-2-yl)methyl)isophthalamide], the Ki is more than 0.501 µM.

On to `Cc1csc(CN(C)C(=O)c2cccc(C(=O)N[C@H](Cc3ccccc3)[C@@H](O)CNCc3cncc(C(C)C)c3)c2)n1` [Compound 128, N1-((2R,3S)-3-hydroxy-4-((5-isopropylpyridin-3-yl)methylamino)-1-phenylbutan-2-yl)-N3-methyl-N3-((4-methylthiazol-2-yl)methyl)isophthalamide], for which the Ki is more than 0.501 µM.

On to `COCCn1ncc(CNC[C@@H](O)[C@H](Cc2ccccc2)NC(=O)c2cc(C(=O)N[C@H](C)c3ccccc3)cc(N(C)S(C)(=O)=O)c2)c1C` [Compound 131, N1-((2S,3R)-3-hydroxy-4-((1-(2-methoxyethyl)-5-methyl-1H-pyrazol-4-yl)methylamino)-1-phenylbutan-2-yl)-5-(N-methylmethylsulfonamido)-N3-((R)-1-phenylethyl)isophthalamide], for which the Ki is less than 0.3 µM.

Consider `COCCn1ncc(CNC[C@@H](O)[C@H](Cc2ccccc2)NC(=O)c2cccc(C(=O)N(C)Cc3nc(C)cs3)c2)c1C` [Compound 132, N1-((2S,3R)-3-hydroxy-4-((1-(2-methoxyethyl)-5-methyl-1H-pyrazol-4-yl)methylamino)-1-phenylbutan-2-yl)-N3-methyl-N3-((4-methylthiazol-2-yl)methyl)isophthalamide], for which the Ki was more than 0.501 µM.

For `COc1cccc(CNC[C@@H](O)[C@H](Cc2ccccc2)NC(=O)c2cccc(C(=O)N(C)Cc3nccc(C)n3)c2)c1` [Compound 136, N1-((2S,3R)-3-hydroxy-4-(3-methoxybenzylamino)-1-phenylbutan-2-yl)-N3-methyl-N3-((4-methylpyrimidin-2-yl)methyl)isophthalamide], the Ki was more than 0.501 µM.

Take `C[C@@H](NC(=O)c1cc(C(=O)N[C@@H](Cc2ccccc2)[C@H](O)CNCc2cnn(C(C)(C)C)c2)cc(N(C)S(C)(=O)=O)c1)c1ccccc1` [Compound 138, N1-((2S,3R)-4-((1-tert-butyl-1H-pyrazol-4-yl)methylamino)-3-hydroxy-1-phenylbutan-2-yl)-5-(N-methylmethylsulfonamido)-N3-((R)-1-phenylethyl)isophthalamide]: the Ki is more than 0.501 µM.

With `Cc1csc(CN(C)C(=O)c2cccc(C(=O)N[C@@H](Cc3ccccc3)[C@@H](O)CNCc3cncc(C(C)C)c3)c2)n1` [Compound 147, N1-((2S,3S)-3-hydroxy-4-((5-isopropylpyridin-3-yl)methylamino)-1-phenylbutan-2-yl)-N3-methyl-N3-((4-methylthiazol-2-yl)methyl)isophthalamide], the Ki was more than 0.501 µM.

Turning to `Cc1csc(CN(C)C(=O)c2cccc(C(=O)N[C@H](Cc3ccccc3)[C@H](O)CNCc3cncc(C(C)C)c3)c2)n1` [Compound 151, N1-((2R,3R)-3-hydroxy-4-((5-isopropylpyridin-3-yl)methylamino)-1-phenylbutan-2-yl)-N3-methyl-N3-((4-methylthiazol-2-yl)methyl)isophthalamide], the Ki was more than 0.501 µM.

For `CCN(CC)c1cccc(CNC[C@@H](O)[C@H](Cc2ccccc2)NC(=O)c2cccc(C(=O)N(C)Cc3nc(C)cs3)c2)c1` [Compound 152, N1-((2S,3R)-4-(3-(diethylamino)benzylamino)-3-hydroxy-1-phenylbutan-2-yl)-N3-methyl-N3-((4-methylthiazol-2-yl)methyl)isophthalamide], the Ki is less than 0.3 µM.

In the case of `Cc1csc(CN(C)C(=O)c2cccc(C(=O)N[C@@H](Cc3ccccc3)[C@H](O)CNCc3cc(C(C)C)cnc3C)c2)n1` [Compound 153, N1-((2S,3R)-3-hydroxy-4-((5-isopropyl-2-methylpyridin-3-yl)methylamino)-1-phenylbutan-2-yl)-N3-methyl-N3-((4-methylthiazol-2-yl)methyl)isophthalamide], the Ki was less than 0.3 µM.

Take `Cc1csc(CN(C)C(=O)c2cccc(C(=O)N[C@@H](Cc3ccccc3)[C@H](O)CN(Cc3cnn(C)c3)Cc3cnn(C)c3)c2)n1` [Compound 156, N1-((2S,3R)-4-(bis((1-methyl-1H-pyrazol-4-yl)methyl)amino)-3-hydroxy-1-phenylbutan-2-yl)-N3-methyl-N3-((4-methylthiazol-2-yl)methyl)isophthalamide]: the Ki was more than 0.501 µM.

For `Cc1csc(CN(C)C(=O)c2cccc(C(=O)N[C@@H](Cc3ccccc3)[C@H](O)CNC(C)c3cccc(C(F)F)c3)c2)n1` (stereo partly drawn) [Compound 157, N1-((2S,3R)-4-(1-(3-(difluoromethyl)phenyl)ethylamino)-3-hydroxy-1-phenylbutan-2-yl)-N3-methyl-N3-((4-methylthiazol-2-yl)methyl)isophthalamide], the Ki was less than 0.3 µM.

With `C=C(C)c1cc(O)cc(CNC[C@@H](O)[C@H](Cc2ccccc2)NC(=O)c2cccc(C(=O)N(C)Cc3nc(C)cs3)c2)c1` [Compound 159, N1-((2S,3R)-3-hydroxy-4-(3-hydroxy-5-(prop-1-en-2-yl)benzylamino)-1-phenylbutan-2-yl)-N3-methyl-N3-((4-methylthiazol-2-yl)methyl)isophthalamide], the Ki was less than 0.3 µM.

Turning to `Cc1csc(CN(C)C(=O)c2cccc(C(=O)N[C@@H](Cc3ccccc3)[C@H](O)CNCc3cccc(C(C)O)c3)c2)n1` (stereo partly drawn) [Compound 160, N1-((2S,3R)-3-hydroxy-4-(3-(1-hydroxyethyl)benzylamino)-1-phenylbutan-2-yl)-N3-methyl-N3-((4-methylthiazol-2-yl)methyl)isophthalamide], the Ki was less than 0.3 µM.

As to `COc1cccc(CNC[C@@H](O)[C@H](Cc2ccccc2)NC(=O)c2cc(C(=O)N(C)Cc3nc(C)cs3)cc(-c3ccncc3)c2)c1` [Compound 203, N1-((2S,3R)-3-hydroxy-4-(3-methoxybenzylamino)-1-phenylbutan-2-yl)-N3-methyl-N3-((4-methylthiazol-2-yl)methyl)-5-(pyridin-4-yl)isophthalamide], the Ki was less than 0.3 µM.
